# Values quoted from earlier work in US6475530B1, “Methods and compositions for producing weight loss” (priority 2000, dated 2002).
# Columns and labels:
# growth hormone = conditions: healthy postmenopausal women; 9 grams per day
# [1] = mice; substance by itself
# [2] = single dose of 300 mg. per day; healthy young adults
# cyclooxygenase = conditions: single large dose
compound,measurement,setting,value
N=C(N)NCCC[C@H](N)C(=O)O [L-arginine],increase in growth hormone,growth hormone,72%
"CC(=O)Oc1ccccc1C(=O)O [aspirin, acetylsalicylic acid]",weight loss,[1],no weight loss
same,time to gastric erosion,[2],5 to 7 days
same,time for prostaglandin levels to return to baseline,cyclooxygenase,≤ 6 h
O=C(O)c1cccnc1 [nicotinic acid],effect on free fatty acids,free fatty acids; given in the daytime,"reduces free fatty acids temporarily, but then there is a rebound effect"
same,duration of reduction in free fatty acids,"free fatty acids; given nocturnally, constant infusion from 8:00 PM to 6 AM, without rebound effect",24 h
